Reference: patent US20120184438A1, “FORMULATIONS” (SYNGENTA CROP PROTECTION, LLC, priority 2009, published 2012)

Assay: Solubility of agrochemical active ingredients in Compound No. 1 (equilibrated 4 weeks at 25° C., supernatant analysed by GC/LC)
Type: physicochemical
Conditions: solvent Compound No. 1 (DEET), 4 weeks equilibration
Method: The resultant sample was mixed with a Whirlimixer™ and was then stored at 25° C. The sample was checked every few days; if there was no solid active ingredient present then additional active ingredient was added; if there was no liquid remaining then additional solvent was added. This procedure was repeated until the sample had equilibrated for 4 weeks following the final addition of either active ingredient or solvent.

Row | Compound | Solubility in Compound No. 1 at 25° C. [% w/w]
1 | CO/C=C(/C(=O)OC)c1ccccc1Oc1cc(Oc2ccccc2C#N)ncn1 [Azoxystrobin] | 11.3
2 | COCCOCc1nc(C(F)(F)F)ccc1C(=O)C1=C(O)C2CCC(C2)C1=O (stereo not drawn) [4-Hydroxy-3-[2-(2-methoxyethoxymethyl)-6-trifluoromethylpyridine-3-carbonyl]-bicyclo[3.2.1]oct-3-en-2-one] | 24.7
3 | CC(C1CC1)C(O)(Cn1cncn1)c1ccc(Cl)cc1 (stereo not drawn) [Cyproconazole] | 33.4

Assay: Pesticide (A.I.) solubility in several solvents at 25° C.
Type: physicochemical
Conditions: not given
Method: A glass vial was approximately one eighth filled with an active ingredient [Al] and then solvent [in this example, Compound Number 1 from Table 1] was added until the vial was approximately one third full. The resultant sample was mixed with a Whirlimixer™ and was then stored at 25° C. The sample was checked every few days; if there was no solid active ingredient present then additional active ingredient was added; if there was no liquid remaining then additional solvent was added. This procedure was repeated until the sample had equilibrated for 4 weeks following the final addition of either active ingredient or solvent. The supernatent liquid layer was then analysed by gas chromatography [except for 4-hydroxy-3-[2-(2-methoxyethoxymethyl)-6-trifluoromethylpyridine-3-carbonyl]-bicyclo[3.2.1]oct-3-en-2-one which was analysed by liquid chromatography] for active ingredient concentration; the results are given in Table 2:
(§1) This Example illustrates that Compound Number 1 is unusually effective at dissolving pesticides given that it has a water solubility which is low.

Row | Compound | A.I. Solubility at 25° C., Azoxystrobin [% w/w] | A.I. Solubility at 25° C., Cyproconazole [% w/w]
4 | Trimethylbenzene | 1.7 | 5.8
5 | C[S+](C)[O-] [DMSO] | 32.1 | 55.5

Assay: Aqueous solubility of solvents
Type: physicochemical
Conditions: not given
Source text: as §1

Row | Aqueous solubility [% w/w] | Compound
6 | 0.1 | Trimethylbenzene

Same assay, conditions: solubility of the solvent in water

Row | Aqueous solubility [% w/w] | Compound
7 | 100 | CN1CCCC1=O [N-Methyl pyrrolidone]
8 | 0.1 | CCCCOC(=O)c1ccccc1 [n-Butylbenzoate]
9 | 0.003 | CC(=O)O[C@@H]1C[C@H]2CC[C@]1(C)C2(C)C (racemic) [Isobornyl acetate]
10 | 0.030 | CC(C)[C@@H]1CC[C@@H](C)CC1=O [Menthone]
11 | 100 | C[S+](C)[O-] [DMSO]

The next lines start with the compound.

Row | Compound | Aqueous solubility [% w/w]
12 | OCC1CCCO1 (stereo not drawn) [Tetrahydrofurfuryl alcohol] | 100
13 | CCN(CC)C(=O)c1cccc(C)c1 [Compound No. 1] | 0.1
